{"source": "patent US10485769B2", "about": "“Cholesteryl ester transfer protein (CETP) inhibition in the treatment of cancer” (KING ABDULLAH UNIVERSITY OF SCIENCE AND TECHNOLOGY, priority 2015, dated 2019)", "key": {"CETP": {"tested_on": "CETP", "assay": "CETP activity in mice plasma, CETP activity assay kit", "type": "in vivo", "details": "5 mg/kg AP, compared to Vehicle", "description": "FIG. 7: Levels of CETP mRNA in tumor (A) and protein in serum (B) in mice tumor samples after treatment with 2 mg/kg PL or 5 mg/kg AP were determined with the RT-PCR and western blotting, respectively. Fold change in expression of serum protein was determined using densitometry analysis of western blots using ImageJ (C). CETP activity in serum was estimated using CETP activity kit (name of kit/manufacturer) (D). Values represent the means±SD of three independent experiments. * where p≤0.05, and ** where p≤0.005.\nThe activity of CETP in mice plasma was determined using the CETP activity assay kit according to the manufacturer's instructions (FIG. 7D). CETP activity was […] in AP treated mice compared to Vehicle. This observation was in accordance with the CETP protein expression levels observed in Vehicle, AP and PL test groups. The expression levels of CETP have been reported to be linear with its activity."}, "MCF-7 cells [1]": {"tested_on": "MCF-7 cells", "assay": "Viability of cancer cells, AP combined with chemotherapeutic drugs", "type": "cell-based, human", "details": "24 h", "description": "(§1) FIG. 13: The effect of AP on viability of BJ and MCF-7 cells when combined with different doses of various chemotherapeutic drugs for 24 h. Values represent the means±SD of three replicates.\n(§2) We anticipated that AP might have the potential to reduce toxicity and increase efficacy of known chemotherapeutic drugs which may enhance the usage of these drugs at lower concentrations with increased cancer killing effects. To test this preliminary, we treated normal (BJ) and Cancer (MCF-7) cells with different chemotherapeutic drugs as summarized in FIG. 13.\n(§3) It is also clear from data that the cancer killing effect achieved using 20 μM tamoxifen was possible to achieve using a combination of AP with 10 μM tamoxifen while enhancing the viability of normal cells at the same time."}, "MCF-7 cells [2]": {"tested_on": "MCF-7 cells", "details": "as compared to BJ and triple negative BT20 cells; previously shown [1]; cited from earlier work"}, "BJ cells": {"tested_on": "BJ cells", "assay": "Viability of normal cells, AP combined with chemotherapeutic drugs", "type": "cell-based, human", "description": "as §1, §2, §3"}}, "data": [{"molecule": "CC(=O)Oc1cccc2c1C(=O)C=C(C)C2=O", "note": "[AP, Acetyl Plumbagin]", "values": [{"measurement": "CETP activity in plasma", "setting": "CETP", "value": "elevated"}, {"measurement": "reduction of viability of cancer cells", "setting": "MCF-7 cells [1]; AP in combination with 5-Florouracil", "value": 76, "unit": "%"}, {"measurement": "reduction of viability of cancer cells", "setting": "MCF-7 cells [1]; AP with 10 μM of tamoxifen", "value": 50, "unit": "%"}, {"measurement": "selectivity against MCF-7", "setting": "MCF-7 cells [2]", "value": "selective activity"}, {"measurement": "increase of cell viability of normal cells", "setting": "BJ cells; AP in combination with 5-Florouracil, 24 h", "value": 7, "unit": "%"}, {"measurement": "increase of viability of normal cells", "setting": "BJ cells; AP with 10 μM of tamoxifen, 24 h", "value": 7, "unit": "%"}, {"measurement": "rescue of normal cells from toxic effects of tamoxifen", "setting": "BJ cells; AP with tamoxifen at higher concentrations", "value": "unable to rescue"}]}]}
